Molecules are shown by their SMILES.

Test [1] deals with T1, S1P1 (Homo sapiens, UniProt P21453). As to the kind of experiment: CNG cAMP Assay (Assay 1). The format is cell-based. Further details: host or cells: HEK293 cells expressing the CNG channel. The note with it: read-out: Assay 1 EC50. In short, it runs like this: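 HEK293 cells expressing CNG channel and S1P1, membrane-potential dye loaded; compounds (top 10 μM, 10-point 3-fold, 1.8% DMSO) added with 25 μM Ro 20-1724, 500 nM NECA and 10 nM S1P for 90 min. T90/T0 fluorescence (Ex 350/Em 590 nm) normalised to NECA-alone vs DMSO; EC50 fitted.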
Target sequence in this assay (P21453 whole entry): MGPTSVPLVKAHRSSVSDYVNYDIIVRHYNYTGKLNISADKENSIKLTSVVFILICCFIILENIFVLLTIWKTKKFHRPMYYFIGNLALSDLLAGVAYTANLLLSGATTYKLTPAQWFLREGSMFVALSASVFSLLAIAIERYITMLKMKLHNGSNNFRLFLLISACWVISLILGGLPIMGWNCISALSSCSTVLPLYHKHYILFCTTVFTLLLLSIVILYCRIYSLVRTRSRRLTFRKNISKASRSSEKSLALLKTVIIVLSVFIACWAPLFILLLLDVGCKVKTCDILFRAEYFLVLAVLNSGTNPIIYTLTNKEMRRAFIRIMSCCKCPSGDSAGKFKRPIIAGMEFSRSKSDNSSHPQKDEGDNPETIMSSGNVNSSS

Test [2] deals with T1, S1P1. Briefly: Tango β-arrestin Recruitment Assay in HEK293 cells (Assay 2a). The format is cell-based. The note with it: Tango β-arrestin Recruitment Assay, read-out: Assay 2a EC50. More on the design: linker with TEV protease (N1a) cleavage site (C); host or cells: HEK293, transiently transfected. From the text:
For the Tango™ β-arrestin recruitment assay, the cytoplasmic C-terminus of S1P1 is tethered to the tTA transcriptional activator with a linker that contains a cleavage site for the N1a protease from tobacco etch virus (TEV protease). The C-terminus of the human β-arrestin2 protein is fused to TEV protease. Binding of an agonist recruits the β-arrestin-TEV fusion protein to the receptor resulting in cleavage of the linker and release of tTA to enter the nucleus and subsequently activate a tTA-dependent luciferase reporter gene.
Frozen HEK293 cells transiently transfected with receptor cDNAs for S1P1 (Invitrogen) were thawed and suspended in 10 mL of Pro293a-CDM culture medium (Invitrogen) supplemented with 4 mM L-Glutamine (Invitrogen), 1× Pen/Strep (100 units/mL penicillin and 100 μg/mL streptomycin, Invitrogen) and 0.1% fatty acid free BSA (Sigma-Aldrich). Cells were added to the wells of a 384-well white opaque bottom assay plate (PerkinElmer) at 3,000-6,000 cells per well and the plate was incubated for approximately 4 h in a 37° C. incubator. Test compounds were tested at maximum concentrations of 10 μM for the agonist assays. Compounds were diluted in DMSO (10 concentration points, 3-fold each) and added to the assay plate at a 1% final DMSO concentration. For each compound, there were duplicate assay plates and each assay plate had duplicate wells per concentration point. The plate was incubated at 37° C. for 30 min. The efficacy control was 5 μM S1P (Avanti). Following agonist addition, the assay plates were incubated in a 37° C. incubator for 16-18 h. Luciferase assay reagent was added and luminescence measured in an EnVision plate reader (PerkinElmer). To determine agonist activity, percent activity was calculated as [(test compound−background)/(positive control−background)* 100], where background is the luminescence of the DMSO alone control and the positive control is the luminescence from cells incubated with the efficacy control 5 μM S1P. The percent activities were plotted against compound concentration to determine EC50 using XLFit (IDBS).
Assay 1 is the CNG cAMP Assay as described in Biological Example 1. Assay 2a and 2b are the Tango™ β-arrestin Recruitment Assay in HEK293 and U2OS cells, respectively, as described in Biological Example 2. Assay 3a is the hS1P1R GTPγS Binding Assay as described in Biological Example 3. Assay 3b is the GTP-Eu Binding Assay as described in Biological Example 3. EC50's were measured unless otherwise noted. […] In the table, “nt” means the Compound was not tested and “no” means the compound was tested but had no measurable activity under the assay conditions employed.
Target sequence in this assay (P21453 whole entry): as above
Target sequence in this assay (P32121 whole entry partner): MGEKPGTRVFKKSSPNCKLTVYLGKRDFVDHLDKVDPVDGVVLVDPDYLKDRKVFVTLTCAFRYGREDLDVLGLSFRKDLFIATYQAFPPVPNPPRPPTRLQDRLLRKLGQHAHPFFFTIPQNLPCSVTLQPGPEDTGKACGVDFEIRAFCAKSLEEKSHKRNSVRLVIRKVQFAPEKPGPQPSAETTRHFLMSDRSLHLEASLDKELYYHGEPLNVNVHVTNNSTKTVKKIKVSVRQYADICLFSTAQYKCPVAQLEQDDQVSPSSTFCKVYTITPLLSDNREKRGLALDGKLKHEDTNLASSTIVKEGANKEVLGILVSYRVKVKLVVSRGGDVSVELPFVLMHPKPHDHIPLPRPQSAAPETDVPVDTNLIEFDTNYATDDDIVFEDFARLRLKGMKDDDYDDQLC

With `O=C(O)/C=C/c1ccc(-c2noc(-c3cn4cc(C(F)(F)F)cc(Cl)c4n3)n2)c(Cl)c1` [Entry 3], the EC50 in test [1] is at most 100 nM; in test [2] it was 100 to 500 nM.
The matching figures for `O=C(O)CCc1ccc(-c2noc(-c3cn4cc(C(F)(F)F)cc(Cl)c4n3)n2)c(F)c1` [Entry 19]: at most 100 nM and 100 to 500 nM.
Regarding `NC(=O)CCc1ccc(-c2noc(-c3cn4cc(C(F)(F)F)cc(Cl)c4n3)n2)c(Cl)c1` [Entry 20], the EC50 in test [1] and in test [2] was at most 100 nM throughout.
`Cc1cc(Br)c2nc(-c3nc(-c4cc(F)c(CCC(=O)O)cc4Cl)no3)cn2c1` [Entry 25]: the EC50 in test [1] and in test [2] was at most 100 nM each time.
`Cc1cc(Cl)c2nc(-c3nc(-c4cc(F)c(CCC(=O)O)cc4Cl)no3)cn2c1` [Entry 28]: the EC50 in test [1] and in test [2] was at most 100 nM each time.
In the case of `O=C(O)CCc1cc(Cl)c(-c2noc(-c3cn4cc(I)ccc4n3)n2)cc1F` [Entry 31], the 50% effective concentration (EC50) in test [1] and in test [2] was at most 100 nM throughout.
On to `O=C(O)CCc1cc(Cl)c(-c2noc(-c3cn4cc([N+](=O)[O-])cc(Cl)c4n3)n2)cc1F` [Entry 36], for which the EC50 is at most 100 nM in test [1] and 100 to 500 nM in test [2].
As to `N#Cc1cc(Br)c2nc(-c3nc(-c4cc(F)c(CCC(=O)O)cc4Cl)no3)cn2c1` [Entry 47], the EC50 in test [1] was at most 100 nM; in test [2], 100 to 500 nM.
Consider `O=C(O)CCc1cc(Cl)c(-c2noc(-c3cn4cc(Br)cc(Cl)c4n3)n2)cc1F` [Entry 64], for which the EC50 in test [1] and in test [2] was at most 100 nM each time.
As for `O=C(O)CN1CCC(Oc2cc(Cl)c(-c3noc(-c4cn5cc(C(F)(F)F)cc(Cl)c5n4)n3)cc2F)C1` (stereo not drawn) [Example 92, {3-[(5-chloro-4-{5-[8-chloro-6-(trifluoromethyl)imidazo[1,2-a]pyridin-2-yl]-1,2,4-oxadiazol-3-yl}-2-fluorophenyl)oxy]pyrrolidin-1-yl}acetic acid], the EC50 in test [1] and in test [2] was at most 100 nM in each case.
For the compound `O=C(O)[C@H]1C[C@H](Oc2ccc(-c3noc(-c4cn5cc(C(F)(F)F)cc(Cl)c5n4)n3)c(Cl)c2)CN1` [Example 97, (4S)-4-[(3-chloro-4-{5-[8-chloro-6-(trifluoromethyl)imidazo[1,2-a]pyridin-2-yl]-1,2,4-oxadiazol-3-yl}phenyl)oxy]-D-proline], the EC50 in test [1] and in test [2] was at most 100 nM in each case.
`Cc1cc(NS(C)(=O)=O)ccc1-c1noc(-c2cn3cc(C(F)(F)F)cc(Cl)c3n2)n1` [Example 98, N-(4-{5-[8-chloro-6-(trifluoromethyl)imidazo[1,2-a]pyridin-2-yl]-1,2,4-oxadiazol-3-yl}-3-methylphenyl)methanesulfonamide]: the EC50 in test [1] and in test [2] was at most 100 nM each time.
Consider `CS(=O)(=O)NCc1ccc(-c2noc(-c3cn4cc(C(F)(F)F)cc(Cl)c4n3)n2)c(Cl)c1` [Example 136, N-[(3-chloro-4-{5-[8-chloro-6-(trifluoromethyl)imidazo[1,2-a]pyridin-2-yl]-1,2,4-oxadiazol-3-yl}phenyl)methyl]methanesulfonamide], for which the EC50 in test [1] and in test [2] was at most 100 nM each time.
On to `Fc1cccc(F)c1-c1noc(-c2cn3cc(C(F)(F)F)cc(Cl)c3n2)n1` [Example 141, 8-chloro-2-[3-(2,6-difluorophenyl)-1,2,4-oxadiazol-5-yl]-6-(trifluoromethyl)imidazo[1,2-a]pyridine], for which the EC50 in test [1] was in the range of 500 to 1000 nM; in test [2], 100 to 500 nM.
Regarding `Fc1ccccc1-c1noc(-c2cn3cc(C(F)(F)F)cc(Cl)c3n2)n1` [Example 142, 8-chloro-2-[3-(2-fluorophenyl)-1,2,4-oxadiazol-5-yl]-6-(trifluoromethyl)imidazo[1,2-a]pyridine], the figures for the EC50 in test [1] and in test [2] were 100 to 500 nM and 500 to 1000 nM, respectively.
As to `Cc1ccccc1-c1noc(-c2cn3cc(C(F)(F)F)cc(Cl)c3n2)n1` [Example 150, 8-chloro-2-[3-(2-methylphenyl)-1,2,4-oxadiazol-5-yl]-6-(trifluoromethyl)imidazo[1,2-a]pyridine], the concentration for a half-maximal effect (EC50) in test [1] was at most 100 nM; in test [2], 100 to 500 nM.
With `FC(F)(F)c1cc(Br)c2nc(-c3nc(-c4ccccc4Cl)no3)cn2c1` [Example 159, 8-bromo-2-[3-(2-chlorophenyl)-1,2,4-oxadiazol-5-yl]-6-(trifluoromethyl)imidazo[1,2-a]pyridine], the EC50 in test [1] was at most 100 nM; in test [2], 100 to 500 nM.
Consider `Cc1cc(C#N)c2nc(-c3nc(-c4cc(F)c(CCC(=O)O)cc4Cl)no3)cn2c1` [Example 160, 3-{5-chloro-4-[5-(8-cyano-6-methylimidazo[1,2-a]pyridin-2-yl)-1,2,4-oxadiazol-3-yl]-2-fluorophenyl}propanoic acid], for which the EC50 in test [1] was at most 100 nM; in test [2], 100 to 500 nM.
For the compound `CC(Cc1ccc(-c2noc(-c3cn4cc(C(F)(F)F)cc(Cl)c4n3)n2)c(Cl)c1)C(=O)O` (stereo not drawn) [Example 171, 3-(3-chloro-4-{5-[8-chloro-6-(trifluoromethyl)imidazo[1,2-a]pyridin-2-yl]-1,2,4-oxadiazol-3-yl}phenyl)-2-methylpropanoic acid], the EC50 is at most 100 nM in test [1] and 100 to 500 nM in test [2].
In the case of `Cc1cc(CC(C)C(=O)O)ccc1-c1noc(-c2cn3cc(C(F)(F)F)cc(Br)c3n2)n1` (stereo not drawn) [Example 173, 3-(4-{5-[8-bromo-6-(trifluoromethyl)imidazo[1,2-a]pyridin-2-yl]-1,2,4-oxadiazol-3-yl}-3-methylphenyl)-2-methylpropanoic acid], the concentration for a half-maximal effect (EC50) is at most 100 nM in test [1] and 100 to 500 nM in test [2].
As for `Cc1cc(CC(C)C(=O)O)ccc1-c1noc(-c2cn3cc(C(F)(F)F)cc(Cl)c3n2)n1` (stereo not drawn) [Example 180, 3-(4-{5-[8-chloro-6-(trifluoromethyl)imidazo[1,2-a]pyridin-2-yl]-1,2,4-oxadiazol-3-yl}-3-methylphenyl)-2-methylpropanoic acid], the EC50 in test [1] was at most 100 nM; in test [2], 100 to 500 nM.
With `Cc1cc(C(C)CC(=O)O)ccc1-c1noc(-c2cn3cc(C(F)(F)F)cc(Cl)c3n2)n1` (stereo not drawn) [Example 181, 3-(4-{5-[8-chloro-6-(trifluoromethyl)imidazo[1,2-a]pyridin-2-yl]-1,2,4-oxadiazol-3-yl}-3-methylphenyl)butanoic acid], the EC50 in test [1] was at most 100 nM; in test [2], 100 to 500 nM.
Regarding `Oc1cc(Cl)c(-c2noc(-c3cn4cc(C(F)(F)F)cc(Cl)c4n3)n2)cc1Cl` [Example 191, 2,5-dichloro-4-{5-[8-chloro-6-(trifluoromethyl)imidazo[1,2-a]pyridin-2-yl]-1,2,4-oxadiazol-3-yl}phenol], the EC50 in test [1] and in test [2] was at most 100 nM in each case.
As to `CC(Cc1cc(Cl)c(-c2noc(-c3cn4cc(C(F)(F)F)cc(Cl)c4n3)n2)cc1F)C(=O)O` (stereo not drawn) [Example 203, 3-(5-chloro-4-{5-[8-chloro-6-(trifluoromethyl)imidazo[1,2-a]pyridin-2-yl]-1,2,4-oxadiazol-3-yl}-2-fluorophenyl)-2-methylpropanoic acid], the EC50 in test [1] was at most 100 nM; in test [2], 100 to 500 nM.
For the compound `NCC(O)COc1cc(Cl)c(-c2noc(-c3cn4cc(C(F)(F)F)cc(Cl)c4n3)n2)cc1F` (stereo not drawn) [Example 216, 1-amino-3-[(5-chloro-4-{5-[8-chloro-6-(trifluoromethyl)imidazo[1,2-a]pyridin-2-yl]-1,2,4-oxadiazol-3-yl}-2-fluorophenyl)oxy]propan-2-ol], the EC50 in test [1] and in test [2] was at most 100 nM throughout.
For `OCCOc1c(Cl)cc(-c2noc(-c3cn4cc(C(F)(F)F)cc(Cl)c4n3)n2)cc1Cl` [Example 280, 2-[(2,6-dichloro-4-{5-[8-chloro-6-(trifluoromethyl)imidazo[1,2-a]pyridin-2-yl]-1,2,4-oxadiazol-3-yl}phenyl)oxy]ethanol], the 50% effective concentration (EC50) in test [2] was at most 100 nM.

Values taken from patent publication US20100160369A1, “S1P1 Agonists and Methods of Making And Using” (EXELIXIS, INC., priority 2008, published 2010).
